Assay results as given in US20220112470A1, “SYSTEMS AND METHODS FOR METABOLIC ENGINEERING” (THE TRUSTEES OF COLUMBIA UNIVERSITY IN THE CITY OF NEW YORK, priority 2019, published 2022).

How the values were obtained:
LexA-TetR fusion protein = target: T1, LexA-TetR fusion protein (Escherichia coli, UniProt P04483); assay: Y3H LacZ assay for tetracyclines; format: cell-based, Saccharomyces cerevisiae
T1 construct: expressed in transfected cells; host or cells: Saccharomyces cerevisiae: FY250-derived PBA-8 (LacZ), LW2635-derived PBA-14 (URA3 growth), FY250-derived HL-2-4-1 (mCherry); the other entry of the earlier key: lexA (P0A7C2, LexA repressor)
Description: Protocol for Y3H LacZ Assay. […] Pelleting and resuspension were repeated once more. […] The assay plate was placed in the shaker overnight. OD measurements were then taken after 24 h, and the cells ere pelleted and resuspended in 100 μL of Z-buffer (60 mM Na2HPO4, 40 mM NaH2PO4, 10 mM KCl, 2 mM MgSO4, pH adjusted to 7, 2.7 mL/L of β-mercaptoethanol added fresh the day of the assay). The cells were pelleted again, resuspended in 100 μL of Y-PER buffer (Fisher Scientific, no. 78990), and lysed for 30 min at rt before the addition of o-nitrophenyl β-Dgalactopyranoside (ONPG) in Z-buffer (8.5 μL, 10 mg/mL). After 90 min, a Na2CO3 solution (1 M, 110 μL) was added to quench the reaction. After pelleting at 3000 rpm, 175 μL of the supernatant was transferred into flat clear-bottom 96-well plates (Corning no. 353072), and OD420 was measured. The limit of detection was calculated as the concentration of molecule at which the signal-to-noise ratio of the assay was >3:1.^32,33

[1] = relative to tetracycline, literature (ref. 55); cited from earlier work
TetR [2] = target: T2, TetR (Escherichia coli, UniProt P04483); settings: literature (ref. 37); cited from earlier work
TetR [3] = target: T2, TetR; settings: literature (ref. 37); cited from earlier work; remark: listed apart in the source
[4] = tested on: LexA-TetR fusion proteins of TetR classes A, B, C, D, E, G and H; assay: Y3H LacZ assay with varying TetR classes; format: cell-based, Saccharomyces cerevisiae; settings: FIG. 2B
Description: Y3H Strain Construction. LexA-TetR Plasmids. Plasmids PBA-Gib5 and HL-249-1 through HL-249-6 encoding LexA-TetR protein fusions for the various TetR classes were cloned by Gibson Assembly of the appropriate TetR sequence with pMW103 digested with restriction enzymes BamHI-HF and EcoRI-HF (Table 3). All TetR sequences with the exception of B) were obtained as IDT gBlocks. TetR(B) sequence was amplified from pET21d-TetR, courtesy of A. Davidson.^25,26
LacZ Assay Strain Construction. V506 was grown overnight in UT-media.^27 The culture was then diluted […] with UT- and plated on UT-plates. Single colonies were streaked on HTU- and UT-plates and a streak growing on UT- but not on HTU-, indicating the loss of the pMW3-(GSG)2rGR2 plasmid, was glycerol stocked as PBA5. This strain was further used for the transformation of the LexA-TetR plasmids to generate LacZ assay strains PBA8 and HL-260-1 through HL-260-7.
Protocol for Y3H LacZ Assay. […] Pelleting and resuspension were repeated once more. […] The assay plate was placed in the shaker overnight. […] After pelleting at 3000 rpm, 175 μL of the supernatant was transferred into flat clear-bottom 96-well plates (Corning no. 353072), and OD420 was measured. The limit of detection was calculated as the concentration of molecule at which the signal-to-noise ratio of the assay was >3:1.^32,33

[5] = target: LexA-TetR(B) fusion protein (Escherichia coli, UniProt P04483); settings: purified TAN-1612 0.5 μM in assay well, 10 μM CID, FIG. 4B
Description: Protocol for Fluorescent Protein Y3H Assay. Fresh patches of Y3H strain HL-2-4-1 were inoculated into HTU-media (1 mL) in 24-well plates (flat, clear bottom, Corning no. 3526) and placed in the shaker. After 24 h, the cells were pelleted by centrifugation at 3250 rpm and resuspended in H2O (1 mL). Pelleting and resuspension were repeated once more. OD600 was measured by diluting 10× into H2O, and the cells were diluted accordingly into H2O for OD600=1 to be used as a 10× solution. A total of 20 μL of cells of OD600=1 were added to the assay plate as the last component in the assay plate (flat, clear bottom, black 96-well plate, Corning no. 3603). […] Starting conditions in the assay plate were OD600=0.1, 2% galactose, 2% raffinose, 0% glucose, 1×HTU-, 10 μM CID, 2% DMSO. The assay plate was placed in the 30° C. shaker overnight before measuring OD600 and 620 nm fluorescence (λex=588 nm).^31
Overnight cultures were used to inoculate 100 mL of YPD in 500 mL conical flasks with a starting OD600 of 0.08. After 68 h, 1 mL of culture was pelleted in 1.5 mL Eppendorf tubes at 14 000 rpm, sterile filtered, and diluted 20× into H2O to be used as a 10× stock solution.
The plate was covered with two layers of SealMate film (Excel Scientific, SM-KIT-BS) and placed in a shaker overnight. […]

## 9-NH2-minocycline
LexA-TetR fusion protein; LacZ reporter, competition with Min-Mtx CID, FIG. 2C
  concentrations differentiated by the Y3H system (range): 0.2 to 20 µM
[1]
  acid stability: high acid stability relative to tetracycline

## Cc1c2c(c(O)c3c(O)cccc13)C(=O)C1(O)C(=O)C(C(N)=O)=C(O)CC1C2 (centres unmarked) [4-de(dimethylamino)-anhydrotetracycline]
TetR [2]
  binding to TetR: possible to detect binding
TetR [3]
  induction in TetR-TetO-based assay: no induction was detected

## CN(C)c1cc(NC(=O)CNC(=O)CC[C@H](NC(=O)c2ccc(N(C)Cc3ccc4nc(N)nc(N)c4c3)cc2)C(=O)O)c(O)c2c1C[C@H]1C[C@H]3C(N(C)C)C(O)=C(C(N)=O)C(=O)[C@@]3(O)C(O)=C1C2=O (some centres unmarked) [Min-Mtx CID]
LexA-TetR fusion protein; varying concentrations of Min-Mtx CID, FIG. 2A
  reporter gene output dependence on CID: dependent upon the presence of the CID
[4]; TetR(B) and TetR(G)
  response to the CID, best TetR classes: showed the best response to the CID
[4]; all TetR classes tested as protein receptors
  responsiveness of the Y3H system to the CID: responsive to the CID with all known TetR classes except for the TetR(C) variant used

## COc1cc(O)c2c(O)c3c(cc2c1)CC1(O)CC(=O)C(C(C)=O)=C(O)C1(O)C3=O (centres unmarked) [TAN-1612]
[5]
  Y3H signal (mCherry) of purified compound spiked into nonproducer supernatants: resembles the signal obtained with producer supernatant
